Where a name gives a salt, the structure may show the parent alone.
Target: T1, ETB Receptor (Sus scrofa, UniProt P35463)
T1 construct: Porcine cerebellum was homogenized in 25 volumes (w/v) of 10 mM Hepes (pH 7.4); from tissue; host or cells: porcine cerebellum membranes
T1 sequence (P35463 27-443): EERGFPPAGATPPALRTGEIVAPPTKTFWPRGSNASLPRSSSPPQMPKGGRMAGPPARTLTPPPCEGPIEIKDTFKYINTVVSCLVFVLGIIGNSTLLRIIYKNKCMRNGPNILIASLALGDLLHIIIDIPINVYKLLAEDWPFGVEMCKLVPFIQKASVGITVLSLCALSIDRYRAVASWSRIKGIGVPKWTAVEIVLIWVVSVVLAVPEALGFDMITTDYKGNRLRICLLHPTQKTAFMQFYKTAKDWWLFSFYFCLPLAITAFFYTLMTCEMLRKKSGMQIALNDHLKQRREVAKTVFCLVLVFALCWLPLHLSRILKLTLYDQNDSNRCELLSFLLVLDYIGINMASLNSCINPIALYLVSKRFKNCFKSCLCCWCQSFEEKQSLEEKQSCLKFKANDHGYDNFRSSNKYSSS
Assay: ETB receptor binding assay: [125I]ET-3 binding to membranes
Settings: test compound 1 µM; displacement of 0.1 nM [125I]ET-3; Porcine cerebellum membranes; 4 hours at 25 °C
Protocol: Preparation of membranes from Porcine cerebellum:
Porcine cerebellum was homogenized in 25 volumes (w/v) of 10 mM Hepes (pH 7.4) containing 0.25 M sucrose and protease inhibitors (3 mM EDTA, 0.1 mM PMSF, and 5 µg/ml Pepstatin A) by 3-10 sec polytron at 13,500 rpm with 10 sec intervals. The mixture was centrifuged at 1000xg for 10 min. The supernatant was collected and centrifuged at 30,000xg for 30 min. The precipitate was resuspended in Buffer A (20 mM Tris, 100 mM NaCl, 10 mM MgCl2, pH 7.4) containing the aforementioned protease inhibitors and centrifuged again. The final pellet was resuspended in Buffer A containing protease inhibitors and stored at -80°C until used. Protein content was determined by the Bio-Rad dye-binding protein assay.
[^125I]ET-3 binding to membranes:
Binding assays were performed in 96-well microtiter plates pretreated with 0.1% BSA. Membranes prepared from cells were diluted ∼100 fold in Buffer B (20 mM Tris, 100 mM NaCl, 10 mM MgCl2, pH 7.4, with 0.2% BSA, 0.1 mM PMSF, 5 µg/mL Pepstatin A, 0.025% bacitracin, and 3 mM EDTA) to a final concentration of 0.2 mg/mL of protein. In competition studies, membranes (0.02 mg) were incubated with 0.1 nM of [^125I]ET-3 in Buffer B (final volume: 0.2 mL) in the presence of increasing concentrations of unlabeled ET-3 or a test compound for 4 hours at 25 °C. After incubation, unbound ligands were separated from bound ligands by a vacuum filtration method using glass-fiber filter strips in PHD cell harvesters (Cambridge Technology, Inc., MA), followed by washing the filter strips with saline (1 mL) for three times. Nonspecific binding was determined in the presence of 1 µM ET-1. The per cent inhibition at a concentration of 1 µM is shown. […]

| Compound | inhibition at 1 µM |
| --- | --- |
| COc1ccc([C@H]2[C@H](C(=O)O)[C@@H](c3ccc4c(c3)OCO4)CN2CC(=O)Nc2c(C)cc(C)cc2C)cc1F (racemic) [Example 2, trans,trans-2-(3-Fluoro-4-methoxyphenyl)-4-(1,3-benzodioxol-5-yl)-1-((2,4,6-trimethyl)phenylaminocarbonylmethyl)-pyrrolidine-3-carboxylic acid] | 91.5% |
| CCCOc1ccc([C@H]2[C@H](C(=O)O)[C@@H](c3ccc4c(c3)OCO4)CN2CC(=O)Nc2c(C)cc(C)cc2C)cc1 (racemic) [Example 3, trans,trans-2-(4-Propoxyphenyl)-4-(1,3-benzodioxol-5-yl)-1-((2,4,6-trimethyl)phenylaminocarbonylmethyl)-pyrrolidine-3-carboxylic acid] | 82.1% |
| CCc1cccc(CC)c1NC(=O)CN1C[C@H](c2cc(OC)c3c(c2)OCO3)[C@@H](C(=O)O)[C@@H]1c1ccc(OC)c(F)c1 (racemic) [Example 8, trans,trans-2-(3-Fluoro-4-methoxyphenyl)-4-(7-methoxy-1,3-benzodioxol-5-yl)-1-((2,6-diethyl)phenylaminocarbonylmethyl)-pyrrolidine-3-carboxylic acid] | 93.6% |
| COc1ccc([C@H]2[C@H](C(=O)O)[C@@H](c3ccc4c(c3)OCO4)CN2CC(=O)Nc2c(C)cccc2C)cc1 (racemic) [Example 11, trans,trans-2-(4-methoxyphenyl)-4-(1,3-benzodioxol-5-yl)-1-((2,6-dimethyl)phenylaminocarbonylmethyl)-pyrrolidine-3-carboxylic acid] | 96% |
| CCCOc1ccc([C@H]2[C@H](C(=O)O)[C@@H](c3cc(OC)c4c(c3)OCO4)CN2CC(=O)Nc2c(CC)cccc2CC)cc1 (racemic) [Example 12, trans,trans-2-(4-propoxyphenyl)-4-(7-methoxy-1,3-benzodioxol-5-yl)-1-((2,6-diethyl)phenylaminocarbonylmethyl)-pyrrolidine-3-carboxylic acid] | 96.7% |
| CCCOc1ccc([C@H]2[C@H](C(=O)O)[C@@H](c3cc(OC)c4c(c3)OCO4)CN2CC(=O)Nc2c(CC)cccc2CC)cc1OC [Example 13, trans,trans-2-(3-methoxy-4-propoxyphenyl)-4-(7-methoxy-1,3-benzodioxol-5-yl)-1-((2,6-diethyl)phenylaminocarbonylmethyl)-pyrrolidine-3-carboxylic acid] | 91.3% |
| COc1ccc([C@H]2[C@H](C(=O)O)[C@@H](c3ccc4c(c3)OCO4)CN2CC(=O)Nc2c(Br)cccc2Br)cc1 [Example 14, trans,trans-2-(4-methoxyphenyl)-4-(1,3-benzodioxol-5-yl)-1-((2,6-dibromo)phenylaminocarbonylmethyl)-pyrrolidine-3-carboxylic acid] | 96.6% |
| COc1ccc([C@H]2[C@H](C(=O)O)[C@@H](c3ccc4c(c3)OCO4)CN2CC(=O)Nc2c(OC)cccc2OC)cc1 [Example 16, trans,trans-2-(4-methoxyphenyl)-4-(1,3-benzodioxol-5-yl)-1-((2,6-dimethoxy)phenylaminocarbonylmethyl)-pyrrolidine-3-carboxylic acid] | 92.3% |
| COc1ccc([C@H]2[C@H](C(=O)O)[C@@H](c3ccc4c(c3)OCO4)CN2CC(=O)Nc2c(C(C)C)cccc2C(C)C)cc1 [Example 21, trans,trans-2-(4-methoxyphenyl)-4-(1,3-benzodioxol-5-yl)-1-((2,6-diisopropyl)phenylaminocarbonylmethyl)-pyrrolidine-3-carboxylic acid] | 97.1% |

Continued, values first:

| inhibition at 1 µM | Compound |
| --- | --- |
| 96.4% | COc1ccc([C@H]2[C@H](C(=O)O)[C@@H](c3ccc4c(c3)OCO4)CN2CC(=O)Nc2c(C)cc(C)cc2C)cc1 (racemic) [Example 1, trans,trans-2-(4-Methoxyphenyl)-4-(1,3-benzodioxol-5-yl)-1-((2,4,6-trimethyl)phenylaminocarbonylmethyl)-pyrrolidine-3-carboxylic acid] |
| 94% | CCc1cccc(CC)c1NC(=O)CN1C[C@H](c2ccc3c(c2)OCO3)[C@@H](C(=O)O)[C@@H]1c1ccc(OC)cc1 (racemic) [Example 4, trans,trans-2-(4-Methoxyphenyl)-4-(1,3-benzodioxol-5-yl)-1-((2,6-diethyl)phenylaminocarbonylmethyl)-pyrrolidine-3-carboxylic acid] |
| 96.5% | CCCOc1ccc([C@H]2[C@H](C(=O)O)[C@@H](c3ccc4c(c3)OCO4)CN2CC(=O)Nc2c(CC)cccc2CC)cc1 (racemic) [Example 5, trans,trans-2-(4-Propoxyphenyl)-4-(1,3-benzodioxol-5-yl)-1-((2,6-diethyl)phenylaminocarbonylmethyl)-pyrrolidine-3-carboxylic acid] |
| 92.9% | CCc1cccc(CC)c1NC(=O)CN1C[C@H](c2ccc3c(c2)OCO3)[C@@H](C(=O)O)[C@@H]1c1ccc(OC)c(F)c1 (racemic) [Example 6, trans,trans-2-(3-Fluoro-4-methoxyphenyl)-4-(1,3-benzodioxol-5-yl)-1-((2,6-diethyl)phenylaminocarbonylmethyl)-pyrrolidine-3-carboxylic acid] |
| 94.5% | CCOc1ccc([C@H]2[C@H](C(=O)O)[C@@H](c3ccc4c(c3)OCO4)CN2CC(=O)Nc2c(CC)cccc2CC)cc1F (racemic) [Example 7, trans,trans-2-(3-Fluoro-4-ethoxyphenyl)-4-(1,3-benzodioxol-5-yl)-1-((2,6-diethyl)phenylaminocarbonylmethyl)-pyrrolidine-3-carboxylic acid] |
| 94.8% | CCCOc1ccc([C@H]2[C@H](C(=O)O)[C@@H](c3ccc4c(c3)OCO4)CN2CC(=O)Nc2c(CC)cccc2CC)cc1OC (racemic) [Example 9, trans,trans-2-(3-methoxy-4-propoxyphenyl)-4-(1,3-benzodioxol-5-yl)-1-((2,6-diethyl)phenylaminocarbonylmethyl)-pyrrolidine-3-carboxylic acid] |
| 95.2% | CCOc1ccc([C@H]2[C@H](C(=O)O)[C@@H](c3ccc4c(c3)OCO4)CN2CC(=O)Nc2c(CC)cccc2CC)cc1 (racemic) [Example 10, trans,trans-2-(4-ethoxyphenyl)-4-(1,3-benzodioxol-5-yl)-1-((2,6-diethyl)phenylaminocarbonylmethyl)-pyrrolidine-3-carboxylic acid] |
| 93.4% | CCc1cccc(CC)c1NC(=O)CN1C[C@H](c2ccc3c(c2)OCO3)[C@@H](C(=O)O)[C@@H]1c1ccc(OC)cc1 [Example 15, [2R,3R,4S]2-(4-Methoxyphenyl)-4-(1,3-benzodioxol-5-yl)-1-(N-(2,6-diethyl)phenylaminocarbonylmethyl)-pyrrolidine-3-carboxylic acid, hydrochloride salt] |
| 97.1% | CCc1cc(Br)cc(CC)c1NC(=O)CN1C[C@H](c2ccc3c(c2)OCO3)[C@@H](C(=O)O)[C@@H]1c1ccc(OC)cc1 [Example 17, trans,trans-2-(4-methoxyphenyl)-4-(1,3-benzodioxol-5-yl)-1-((4-bromo-2,6-diethyl)phenylaminocarbonylmethyl)-pyrrolidine-3-carboxylic acid] |
| 94.9% | CCc1cccc(C)c1NC(=O)CN1C[C@H](c2ccc3c(c2)OCO3)[C@@H](C(=O)O)[C@@H]1c1ccc(OC)cc1 [Example 18, trans,trans-2-(4-methoxyphenyl)-4-(1,3-benzodioxol-5-yl)-1-((2-ethyl-6-methyl)phenylaminocarbonylmethyl)-pyrrolidine-3-carboxylic acid] |
| 94.9% | CCc1cc(CC)c(NC(=O)CN2C[C@H](c3ccc4c(c3)OCO4)[C@@H](C(=O)O)[C@@H]2c2ccc(OC)cc2)c(CC)c1 [Example 19, trans,trans-2-(4-methoxyphenyl)-4-(1,3-benzodioxol-5-yl)-1-((2,4,6-triethyl)phenylaminocarbonylmethyl)-pyrrolidine-3-carboxylic acid] |
| 95.5% | CCCOc1ccc(C2C(C(=O)O)C(c3ccc4c(c3)OCO4)CN2CC(=O)Nc2c(CC)cccc2CC)cc1 [Example 20, [2R,3R,4S]2-(4-Propoxyphenyl)-4-(1,3-benzodioxol-5-yl)-1-(N-((2,6-diethyl)phenylaminocarbonylmethyl)-pyrrolidine-3-carboxylic acid] |
